Measured values as given in ChEMBL document CHEMBL3046841, “The synthesis and screening of the antimicrobial activity of some novel 3-(furan-2-yl)-1-(aryl)-3-(phenylthio) propan-1-one derivatives” (2011).
≈ marks a conversion by molar mass, not a printed value.

Experiments:
Assay type in all cases: functional
[1] = system: Streptococcus pyogenes; assay: Antimicrobial activity against Streptococcus pyogenes ATCC 176 after 24 hr by serial microdilution method; conditions: ATCC 176, 24 h
[2] = system: Staphylococcus aureus; assay: Antimicrobial activity against Staphylococcus aureus ATCC 29213 after 24 hr by serial microdilution method; conditions: ATCC 29213, 24 h
[3] = system: Candida albicans; assay: Antimicrobial activity against Candida albicans ATCC 1213 by serial microdilution method
[4] = system: Cyberlindnera jadinii; assay: Antimicrobial activity against Cyberlindnera jadinii KUEN 1031 serial microdilution method; conditions: Williopsis jadinii
[5] = system: Salmonella enteritidis; assay: Antimicrobial activity against Salmonella enterica subsp. enterica serovar Enteritidis ATCC 13076 after 24 hr by serial microdilution method; conditions: ATCC 13076, 24 h
[6] = system: Proteus vulgaris; assay: Antimicrobial activity against Proteus vulgaris KUEN 1329 at 105 ug/disk after 24 hr by disk diffusion method; conditions: KUEN 1329, 24 h, read-out: IZ
[7] = system: Bacillus cereus; assay: Antimicrobial activity against Bacillus cereus DSM 4312 after 24 hr by serial microdilution method; conditions: DSM 4312, 24 h
[8] = system: Proteus vulgaris; assay: Antimicrobial activity against Proteus vulgaris KUEN 1329 after 24 hr by serial microdilution method; conditions: KUEN 1329, 24 h
[9] = system: Bacillus cereus; assay: Antimicrobial activity against Bacillus cereus DSM 4312 at 105 ug/disk after 24 hr by disk diffusion method; conditions: DSM 4312, 24 h, read-out: IZ
[10] = system: Escherichia coli; assay: Antimicrobial activity against Escherichia coli 111 at 105 ug/disk after 24 hr by disk diffusion method; conditions: Escherichia coli, 111, 24 h; read-out: IZ
[11] = system: Pseudomonas aeruginosa; assay: Antimicrobial activity against Pseudomonas aeruginosa ATCC 27859 at 105 ug/disk after 24 hr by disk diffusion method; conditions: ATCC 27859, 24 h, read-out: IZ
[12] = system: Pseudomonas aeruginosa; assay: Antimicrobial activity against Pseudomonas aeruginosa ATCC 9027 after 24 hr by serial microdilution method; conditions: ATCC 9027, 24 h
[13] = system: Bacillus subtilis; assay: Antimicrobial activity against Bacillus subtilis ATCC 6633 after 24 hr by serial microdilution method; conditions: ATCC 6633, 24 h
[14] = system: Candida albicans; assay: Antimicrobial activity against Candida albicans ATCC 1213 at 105 ug/disk after 48 hr by disk diffusion method; conditions: ATCC 1213, 48 h, read-out: IZ
[15] = system: Cyberlindnera jadinii; assay: Antimicrobial activity against Cyberlindnera jadinii KUEN 1031 at 105 ug/disc after 48 hr by disk diffusion method; conditions: Williopsis jadinii, KUEN 1031, 48 h; read-out: IZ
[16] = system: Escherichia coli; assay: Antimicrobial activity against Escherichia coli 111 after 24 hr by serial microdilution method; conditions: Escherichia coli, 111, 24 h
[17] = system: Pseudomonas aeruginosa; assay: Antimicrobial activity against Pseudomonas aeruginosa ATCC 27859 after 24 hr by serial microdilution method; conditions: ATCC 27859, 24 h
[18] = system: Bacillus subtilis; assay: Antimicrobial activity against Bacillus subtilis ATCC 6633 at 105 ug/disk after 24 hr by disk diffusion method; conditions: ATCC 6633, 24 h, read-out: IZ
[19] = system: Pseudomonas aeruginosa; assay: Antimicrobial activity against Pseudomonas aeruginosa ATCC 9027 at 105 ug/disk after 24 hr by disk diffusion method; conditions: ATCC 9027, 24 h, read-out: IZ
[20] = system: Staphylococcus aureus; assay: Antimicrobial activity against Staphylococcus aureus ATCC 29213 at 105 ug/disc after 24 hr by disk diffusion method; conditions: ATCC 29213, 24 h, read-out: IZ
[21] = system: Salmonella enteritidis; assay: Antimicrobial activity against Salmonella enterica subsp. enterica serovar Enteritidis ATCC 13076 at 105 ug/disk after 24 hr by disk diffusion method; conditions: ATCC 13076, 24 h, read-out: IZ
[22] = system: Streptococcus pyogenes; assay: Antimicrobial activity against Streptococcus pyogenes ATCC 176 at 105 ug/disc after 24 hr by disc diffusion method; conditions: ATCC 176, 24 h, read-out: IZ

SMILES	MIC [1] [µg/mL]	MIC [2] [µg/mL]	MIC [3] [µg/mL]	MIC [4] [µg/mL]	MIC [5] [µg/mL]	zone of inhibition at 105 µg/disc [6] [mm]	MIC [7] [µg/mL]	MIC [8] [µg/mL]	zone of inhibition at 105 µg/disc [9] [mm]	zone of inhibition at 105 µg/disc [10] [mm]	MIC [12] [µg/mL]	MIC [13] [µg/mL]	zone of inhibition at 105 µg/disc [14] [mm]	zone of inhibition at 105 µg/disc [15] [mm]	MIC [16] [µg/mL]	MIC [17] [µg/mL]	zone of inhibition at 105 µg/disc [18] [mm]	zone of inhibition at 105 µg/disc [19] [mm]	zone of inhibition at 105 µg/disc [20] [mm]	zone of inhibition at 105 µg/disc [21] [mm]	other results
O=C(CC(Sc1ccccc1)c1ccco1)c1ccccc1Br (stereo not drawn)	> 125	7.81 (≈ 20.2 µM)	> 125	> 125	> 125	16	31.2 (≈ 80.7 µM)	62.5 (≈ 161 µM)	12	10	> 125	31.2 (≈ 80.7 µM)	17	15	62.5 (≈ 161 µM)	31.2 (≈ 80.7 µM)	15	15	17	15	zone of inhibition at 105 µg/disc [11]: 16 mm; zone of inhibition at 105 µg/disc [22]: 13 mm
CN(C)[C@@H]1C(O)=C(C(N)=O)C(=O)[C@@]2(O)C(O)=C3C(=O)c4c(O)cccc4[C@@](C)(O)[C@H]3C[C@@H]12 [TETRACYCLINE]	3.9 (≈ 8.78 µM)	125 (≈ 281 µM)	125 (≈ 281 µM)	15.6 (≈ 35.1 µM)	7.81 (≈ 17.6 µM)		62.5 (≈ 141 µM)	3.9 (≈ 8.78 µM)			3.9 (≈ 8.78 µM)	15.6 (≈ 35.1 µM)			125 (≈ 281 µM)	> 125					
COc1ccccc1C(=O)CC(Sc1ccccc1)c1ccco1 (stereo not drawn)	31.2 (≈ 92.3 µM)	7.81 (≈ 23.1 µM)	125 (≈ 369 µM)	125 (≈ 369 µM)	15.6 (≈ 46.2 µM)	15	31.2 (≈ 92.3 µM)	31.2 (≈ 92.3 µM)	10	13	31.2 (≈ 92.3 µM)	31.2 (≈ 92.3 µM)	17	14	62.5 (≈ 185 µM)	62.5 (≈ 185 µM)	14	15	17	18	zone of inhibition at 105 µg/disc [11]: 15 mm; zone of inhibition at 105 µg/disc [22]: 15 mm
CC1(C)S[C@@H]2[C@H](NC(=O)[C@H](N)c3ccccc3)C(=O)N2[C@H]1C(=O)O [AMPICILLIN]	3.9 (≈ 11.2 µM)	> 125	> 125	7.81 (≈ 22.4 µM)	> 125		> 125	15.6 (≈ 44.7 µM)			7.81 (≈ 22.4 µM)	> 125			> 125	> 125					
O=C(CC(Sc1ccccc1)c1ccco1)c1cccc(Br)c1 (stereo not drawn)	31.2 (≈ 80.7 µM)	15.6 (≈ 40.3 µM)	> 125	> 125	31.2 (≈ 80.7 µM)	15	31.2 (≈ 80.7 µM)	31.2 (≈ 80.7 µM)	13		15.6 (≈ 40.3 µM)	31.2 (≈ 80.7 µM)	16	14	> 125	> 125		16	16	16	
COc1cccc(C(=O)CC(Sc2ccccc2)c2ccco2)c1 (stereo not drawn)	7.81 (≈ 23.1 µM)	> 125	15.6 (≈ 46.2 µM)	15.6 (≈ 46.2 µM)	62.5 (≈ 185 µM)	14	62.5 (≈ 185 µM)	31.2 (≈ 92.3 µM)		14	> 125	62.5 (≈ 185 µM)	17	13	31.2 (≈ 92.3 µM)	125 (≈ 369 µM)	12			17	
O=C(CC(Sc1ccccc1)c1ccco1)c1ccc(O)cc1 (stereo not drawn)	7.81 (≈ 24.1 µM)	31.2 (≈ 96.3 µM)	15.6 (≈ 48.2 µM)	62.5 (≈ 193 µM)	62.5 (≈ 193 µM)	17	31.2 (≈ 96.3 µM)	7.81 (≈ 24.1 µM)		10	62.5 (≈ 193 µM)	31.2 (≈ 96.3 µM)	20	13	62.5 (≈ 193 µM)	62.5 (≈ 193 µM)		14		17	
